Key:
[1] = test system: healthy human skin; assay: Skin roughness by profilometry (mean depth of roughness Rz) on volar forearms, 7 days of treatment then SDS irritation; type: in vivo; set-up: unit not given here
Protocol: Roughness was measured by profilometry using a stylus instrument (OFR 01; Romano GmbH, Cologne, Germany). Silicon impressions from the test areas of the volar forearm were prepared. The dental mass Silasoft N® (Detax-K. Huber K.G., Karlsruhe, Germany) was used for making the impressions. The parameter mean depth of roughness Rz (DIN 4768/1) was measured. By convention the scan length was divided into […] equal-sized areas. In each area the distance from the highest peak to the lowest trough was established. The average of these five distances is Rz.
(§1) Two panels of each five female volunteers at the age of 19-55 years with healthy skin were included in the test.
(§2) Measurements were carried out at a temperature of 22±1°C and a relative humidity of 60±10%. Subjects were accustomed to ambient conditions for 20 min prior to any measurement. The test was carried out on the volar forearms. Initially untreated skin was measured in all six areas to find baseline values. Then the five test products were applied, one area remained untreated. The dose of applicaton was about 2 mg/cm^2. In the following 7 days a home application in the morning and evening took place. Measurements were evaluated during the treatment period on day 7 two hours after the last daily application. Then the test areas on both forearms were treated with a 5% aqueous solution of sodium lauryl sulphate (SDS) and an occlusive dressing applied to induce skin irritation. The dressing was removed two hours later, and the regions were gently washed with water and air-dried. After one hour the measurements were done when the level had stabilised.
(§3) Use of other cosmetic products was restricted on the test areas throughout the whole study.
(§4) • before start treatment; • two hours after last application on day 7; • 1 hour after irritation with SDS (2 hours under occlusion).

[2] = test system: healthy human skin; assay: Desquamation: dansyl chloride fluorescence extraction score on volar forearms, 7 days of treatment then SDS irritation; type: in vivo
Protocol: The stratum corneum was stained with dansyl chloride. Dansyl chloride was mixed to homogeneity at 5% (w/w) in petrolatum and applied to the volar forearms of the volunteers under semi-occlusive tape, one day before the beginning of the study. After 24 h the patches were removed and any excess material wiped off under running tape water. Fluorescence was assessed under UV illumination for intensity and homogeneity by a trained evaluator using the following scale for fluorescence extraction: • 0 : no fluorenscence extraction • 1 : slight fluorescence extraction • 2 : moderate fluorescence extraction • 3 : strong fluorescence extraction • 4 : complete fluorescence extraction. Half scores were used when needed.
as §1, §2, §3, §4

[3] = test system: barrier function of the skin; assay: Trans-epidermal water loss (TEWL, Tewameter) on volar forearms, 7 days of treatment then SDS irritation; type: in vivo, human; set-up: unit not given here
Protocol: Measurements of trans-epidermal water loss (TEWL) were performed with the Tewameter (Courage & Khazaka, Cologne, Germany). The Tewameter is a device for measurement of water evaporation on skin surfaces based on the diffusion principle discovered by A. Fick in 1885.
as §1, §2, §3, §4

[4] = test system: barrier function of the skin; assay: Skin colour by chromametry (Minolta Chromameter CR 300) on volar forearms, 7 days of treatment then SDS irritation; type: in vivo, human; set-up: key: CIE a* value (green-red axis); higher = redder skin
Protocol: Skin colour was measured by chromametry with a Minolta Chromameter CR 300 (Minolta, Ahrensburg, Germany) in compliance with the Commission International de l'eclairage (CIE) system, according to which the registration of colour is adjusted to the non-linear colour sensitivity of human eye. A colour is expressed in a three-dimensional coordinate system with green-red (a*), yellow-blue (b*) and L* axes (brightness). The skin surface is illuminated by a Xenon flash light and remitted light registered and analysed by a photoreceiver. Chromametry is sensitive and accurate for the characterization of redness of skin irritation. In inflamed skin a positive change on the a* axis is observed, towards red. Each value was the average of three recordings.
as §1, §2, §3, §4

[5] = 0.05% in oil-in-water emulsion, 7 days pretreatment, after SDS (5% aqueous, 2 h occlusion, measured 1 h later)
[6] = 0.05% in oil-in-water emulsion, about 2 mg/cm^2 morning and evening, after 7 days
[7] = 0.05% in oil-in-water emulsion, day 0 (baseline before start of treatment)
[8] = 0.2% in oil-in-water emulsion, 7 days pretreatment, after SDS (5% aqueous, 2 h occlusion, measured 1 h later)
[9] = 0.2% in oil-in-water emulsion, about 2 mg/cm^2 morning and evening, after 7 days
[10] = 0.2% in oil-in-water emulsion, day 0 (baseline before start of treatment)
[11] = 0.5% in oil-in-water emulsion, 7 days pretreatment, after SDS (5% aqueous, 2 h occlusion, measured 1 h later)
[12] = 0.5% in oil-in-water emulsion, about 2 mg/cm^2 morning and evening, after 7 days
[13] = 0.5% in oil-in-water emulsion, day 0 (baseline before start of treatment)
[14] = 0.05% in oil-in-water emulsion, 7 days pretreatment, after SDS (5% aqueous, 2 h occlusion), scale 0 to 4
[15] = 0.05% in oil-in-water emulsion, morning and evening, after 7 days, scale 0 (no) to 4 (complete fluorescence extraction)
[16] = 0.05% in oil-in-water emulsion, day 0 (baseline), scale 0 (no) to 4 (complete fluorescence extraction)
[17] = 0.2% in oil-in-water emulsion, 7 days pretreatment, after SDS (5% aqueous, 2 h occlusion), scale 0 to 4
[18] = 0.2% in oil-in-water emulsion, day 0 (baseline), scale 0 (no) to 4 (complete fluorescence extraction)
[19] = 0.5% in oil-in-water emulsion, 7 days pretreatment, after SDS (5% aqueous, 2 h occlusion), scale 0 to 4
[20] = 0.5% in oil-in-water emulsion, day 0 (baseline), scale 0 (no) to 4 (complete fluorescence extraction)

## CCCCCCCCCCCCCC[C@@H](O)[C@@H](O)[C@H](CO)NC(=O)[C@H](C)O [Cer6/OH-C3, N-[(S)-2-hydroxypropanoyl]-phytosphingosine]
[1]; [5]
  Skin roughness: 96.9 ± 8.1
[1]; [6]
  Skin roughness: 109.1 ± 16.4
[1]; [7]
  Skin roughness: 131.2 ± 15.5
[1]; [8]
  Skin roughness: 92.9 ± 9.7
[1]; [9]
  Skin roughness: 91.9 ± 9.9
[1]; [10]
  Skin roughness: 104.7 ± 9
[1]; [11]
  Skin roughness: 116.5 ± 14.8
[1]; [12]
  Skin roughness: 112.9 ± 15.2
[1]; [13]
  Skin roughness: 131.1 ± 15.2
[2]; [14]
  Desquamation (fluorescence extraction): 0,8 ± 0,4
[2]; [15]
  Desquamation (fluorescence extraction): 0,2 ± 0,4
[2]; [16]
  Desquamation (fluorescence extraction): 0
[2]; [17]
  Desquamation (fluorescence extraction): 1 ± 0
[2]; 0.2% in oil-in-water emulsion, morning and evening, after 7 days, scale 0 (no) to 4 (complete fluorescence extraction)
  Desquamation (fluorescence extraction): 0,2 ± 0,4
[2]; [18]
  Desquamation (fluorescence extraction): 0
[2]; [19]
  Desquamation (fluorescence extraction): 1 ± 0
[2]; [20]
  Desquamation (fluorescence extraction): 0
[3]; [5]
  TEWL: 16.6 ± 5.2
[3]; [6]
  TEWL: 8.2 ± 3.5
[3]; [7]
  TEWL: 5 ± 1.1
[3]; [8]
  TEWL: 13.5 ± 6
[3]; [9]
  TEWL: 7.2 ± 1.6
[3]; [10]
  TEWL: 6.1 ± 1.5
[3]; [11]
  TEWL: 11.6 ± 3.3
[3]; [12]
  TEWL: 8 ± 1.9
[3]; [13]
  TEWL: 6 ± 1.2
[4]; [5]
  skin colour: 13.1 ± 1.8
[4]; [6]
  skin colour: 7.6 ± 0.8
[4]; [7]
  skin colour: 6.7 ± 0.4
[4]; [8]
  skin colour: 11.4 ± 0.6
[4]; [9]
  skin colour: 8.5 ± 0.9
[4]; [10]
  skin colour: 7.8 ± 0.9
[4]; [11]
  skin colour: 9.5 ± 1.3
[4]; [12]
  skin colour: 8.7 ± 0.7
[4]; [13]
  skin colour: 8.2 ± 0.5

## CCCCCCCCCCCCCC[C@@H](O)[C@@H](O)[C@H](CO)NC(=O)C(O)CCCCCC (stereo partly shown) [Cer6/OH-C8, N-(2-hydroxyoctanoyl)-phytosphingosine]
[1]; [5]
  Skin roughness: 121.8 ± 11.6
[1]; [6]
  Skin roughness: 119.1 ± 8.8
[1]; [7]
  Skin roughness: 133.6 ± 12.5
[1]; [8]
  Skin roughness: 118.7 ± 7.6
[1]; [9]
  Skin roughness: 118.5 ± 8.2
[1]; [10]
  Skin roughness: 147.1 ± 15.5
[1]; [11]
  Skin roughness: 82.2 ± 7.1
[1]; [12]
  Skin roughness: 98 ± 6.9
[1]; [13]
  Skin roughness: 111.2 ± 6
[2]; [14]
  Desquamation (fluorescence extraction): 0.8 ± 0.4
[2]; [15]
  Desquamation (fluorescence extraction): 0,4 ± 0,5
[2]; [16]
  Desquamation (fluorescence extraction): 0
[2]; [17]
  Desquamation (fluorescence extraction): 0,8 ± 0,4
[2]; [18]
  Desquamation (fluorescence extraction): 0
[2]; [19]
  Desquamation (fluorescence extraction): 1 ± 0
[2]; 0.5% in oil-in-water emulsion, morning and evening, after 7 days, scale 0 (no) to 4 (complete fluorescence extraction)
  Desquamation (fluorescence extraction): 0,4 ± 0,5
[2]; [20]
  Desquamation (fluorescence extraction): 0
[3]; [5]
  TEWL: 14.7 ± 4.2
[3]; [6]
  TEWL: 5.7 ± 1.9
[3]; [7]
  TEWL: 5.7 ± 1.3
[3]; [8]
  TEWL: 10.12 ± 1.9
[3]; [9]
  TEWL: 5.5 ± 1.6
[3]; [10]
  TEWL: 5.4 ± 0.7
[3]; [11]
  TEWL: 13 ± 4.4
[3]; [12]
  TEWL: 7.9 ± 2.7
[3]; [13]
  TEWL: 6.5 ± 2.2
[4]; [5]
  skin colour: 9.2 ± 0.8
[4]; [6]
  skin colour: 6.2 ± 1.2
[4]; [7]
  skin colour: 7 ± 1.2
[4]; [8]
  skin colour: 8.4 ± 0.5
[4]; [9]
  skin colour: 6.3 ± 0.7
[4]; [10]
  skin colour: 6.8 ± 0.5
[4]; [11]
  skin colour: 10.2 ± 0.9
[4]; [12]
  skin colour: 8.3 ± 1.1
[4]; [13]
  skin colour: 6.5 ± 0.6

— patent EP0706509B1, “SHORT CHAIN 2-HYDROXYCARBOXYLIC ACID-BASED DERIVATIVES OF CERAMIDES” (DSM N.V., priority 1994, dated 1995)
